Patent US5380724A, “Piperazine and homopiperazine derivatives, pharmaceutical compositions containing them and process for preparing same” (Gyogyszerkutato Intezet KFT, priority 1992, dated 1995)

Tests used:
[1] = system: arachidonic acid (ferrous ion dependent peroxidation); assay: inhibition of the ferrous ion dependent peroxidation of arachidonic acid; assay type: biochemical; conditions: Fe2+ dependent peroxidation of arachidonic acid
Method: 2. The inhibition of the ferrous ion dependent peroxidation of arachidonic acid was also measured by the method of J. M. Braughler et al. [J. Biol. Chem. 262, 10438 (1987)] and J. A. Buege and S. D. Aust [Methods in Enzymology 52, 302 (1978)]. The IC50 values (expressed in micromols) of some compounds of the invention, further those of the reference compounds determined in this test are shown in Table 2.

acute brain injury = assay: inhibition of acute brain injury of mice (improvement in the neurological state); assay type: in vivo; conditions: intravenous, 20 mg/kg
Excerpt: 1. […] 68, 456 (1988)]. The doses of the test compounds administered by the intravenous route and the percentage of improvement in the neurological state are summarized in Table 4.

[2] = system: ischemia induced weight increase of the small intestine; assay: inhibition of ischemia induced weight increase of a definite section in the small intestine of rats; assay type: in vivo; conditions: Rattus norvegicus, 25 mg/kg oral
Method: 2. […] The percentage of inhibition observed after administration of a 25 mg/kg oral dose of the compounds of the invention or of the reference compounds is shown in Table 5.

acute toxicity in rats = assay type: in vivo; conditions: rat, in vivo, oral
rats = assay: acute toxicity in rats; assay type: in vivo; conditions: 1000 mg/kg oral
[3] = system: rat brain homogenate (ferrous ion dependent lipid peroxidation); assay: ferrous ion dependent lipid peroxidation inhibitory activity on rat brain homogenate (thiobarbituric acid reactive substances); assay type: biochemical; conditions: Fe2+ dependent lipid peroxidation, TBARS
Method: 1. The ferrous ion dependent lipid peroxidation inhibitory activity was measured on rat brain homogenate by using the method descibed by J. M. Braughler et al., [J. Biol. Chem. 262, 10438 (1987)] and J. A. Buege and S. D. […] The IC50 value is defined as the concentration of a test substance which reduces by 50% the amount of the thiobarbituric acid reactive substances (chiefly malondialdehyde) considered to be a characteristic parameter of lipid peroxidation.

[4] = system: NADPH dependent lipid peroxidation; assay: inhibition of the NADPH dependent lipid peroxidation; assay type: biochemical
Method: 3. Inhibiton of the NADPH dependent lipid peroxidation was measured according to T. J. Player and A. A. Horton [J. Neurochem. 37, 422 (1981)] and Z. Duniec [Biochem. Pharmacol. 32, 2283 (1983)]. The IC50 values (expressed in micromols) of some compounds of the invention, further those of the reference compounds determined in this test are given in Table 3.

Compound | IC50 [1] [µM] | Improvement (in the neurological state) (acute brain injury) [%] | inhibition in vivo at 25 mg/kg [2] [%] | LD50 (acute toxicity in rats) [mg/kg] | death of treated animals (rats) | IC50 [3] [µM] | IC50 [4] [µM]
Nc1nc(N)c2nc(-c3ccc(OCC(O)CN4CCNCC4)cc3)c(N)nc2n1 (centres unmarked) [Example 50, 6-[4-[2-Hydroxy-3-(1-piperazinyl)propoxy]phenyl]-2,4,7-triamino-pteridine] | 15 | 93 | 78 | > 1000 | did not provoke death of any of the treated animals |  | 
OC(COc1ccc2ccccc2c1)CN1CCCN(c2cc(N3CCCC3)nc(N3CCCC3)n2)CC1 (centres unmarked) [Example 27] |  | 82 | 60 | > 1000 | did not provoke death of any of the treated animals | 8 | 22
